Test results from publication PMC8958510 (Journal of Medicinal Chemistry, 2022).

Tests used:
[1] = system: hippocampus of SAMP8 mice; assay: Hippocampal gene expression of inflammatory markers by qPCR in SAMP8 mice; type: in vivo, mouse; conditions: 2 mg kg^–1 day^–1 oral, 4 weeks, vs control
Experimental: Compostela, Spain). The human, rat and mice pooled microsomes, with a protein content of 20 mg mL‒1, were purchased from Tebu-Xenotech. The compounds were incubated in a 96-well microplate at 37 °C with the microsomes in 50 mM phosphate buffer (pH = 7.4) containing as cofactors 30 mM MgCl2, 10 mM NADP, 100 mM glucose-6-phosphate and 40 […]
Samples (75 µL) were taken from each well at 0, 10, 20, 40 and 60 min and transferred to a microplate. 4 °C Acetonitrile (75 µL) and internal standard (rolipram) were then added for inactivating the microsomes, and water with 0.5% formic acid (30 µL) was subsequently added for improving the chromatographic conditions, keeping the mixtures at 4 °C. The plate was centrifuged at 46,000 g for 30 min at 15 °C and supernatants were taken and analyzed in a UPLC-MS/MS system (UPLC QSM Waters Acquity) using reverse phase Acquity UPLC® HSST3 1.7 μm (2.1 mm × 50 mm, Waters) as the stationary phase, 0.1% formic acid in water (A) / 0.1% formic acid in acetonitrile (B) as the mobile phase, a flow of 0.8 mL min‒1, and the […]
The metabolic stability of the compounds was calculated from the logarithm of the remaining compound at each of the time points studied.
(§1) In Vivo Proof-of-Concept of the Dual sEH / AChE Inhibitor […] in SAMP8 Mice Animals and treatment. The senescence-accelerated mouse-prone 8 (SAMP8) is an accelerated aging model established through phenotypic selection from AKR/J mice by […]
(§2) abnormal APP and β-amyloid processing and tau pathology, among others. Likewise, SAMP8 […]
(§3) and oxidative stress markers are present at early ages and during adultness.15 In this work, 5-month-old male SAMP8 mice were used to perform behavioral and molecular analyses.
(§4) Animals were randomly divided into SAMP8 control (n=8) and SAMP8 treated with 12c […]
(§5) (n=8, 2 mg kg‒1 day‒1). The animals had free access to food and water and were kept under standard temperature conditions (22 ± 2 °C) and 12-h/12-h light/dark cycles (300 lux/0 lux).
Compound 12c was dissolved in 1.8% (2-hydroxypropyl)-β-cyclodextrin (Sigma-Aldrich, St. […]

human serum BChE = biological target: T1, human serum BChE (Homo sapiens, UniProt P06276); type: biochemical
T1 construct: human serum BChE (Sigma-Aldrich, Milan, Italy) was assessed by Ellman’s method; purchased Sigma-Aldrich, Milan, Italy; host or cells: human serum
T1 sequence (P06276 29-602): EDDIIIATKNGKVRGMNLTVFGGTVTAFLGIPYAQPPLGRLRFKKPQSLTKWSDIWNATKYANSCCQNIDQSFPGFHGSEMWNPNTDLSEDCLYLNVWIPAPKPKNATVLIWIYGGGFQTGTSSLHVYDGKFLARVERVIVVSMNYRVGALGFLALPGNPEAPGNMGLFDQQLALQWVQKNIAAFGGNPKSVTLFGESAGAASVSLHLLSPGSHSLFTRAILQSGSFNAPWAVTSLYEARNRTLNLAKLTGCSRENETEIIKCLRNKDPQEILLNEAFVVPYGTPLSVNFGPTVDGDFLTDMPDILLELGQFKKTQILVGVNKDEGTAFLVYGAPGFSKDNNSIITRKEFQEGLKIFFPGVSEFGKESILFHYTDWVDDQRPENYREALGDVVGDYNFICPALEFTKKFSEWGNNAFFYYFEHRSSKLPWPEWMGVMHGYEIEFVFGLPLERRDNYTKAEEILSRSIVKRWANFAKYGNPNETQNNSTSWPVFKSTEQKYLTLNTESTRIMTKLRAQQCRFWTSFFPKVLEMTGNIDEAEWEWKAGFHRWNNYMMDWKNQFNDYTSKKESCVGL
Experimental: (§6) Human and mouse acetylcholinesterase and human butyrylcholinesterase inhibition
(§7) assay. The inhibitory activity of the target compounds toward recombinant human AChE
(§8) (Sigma-Aldrich, Milan, Italy), recombinant mouse AChE (Bio-Techne, Milan, Italy) and
(§9) human serum BChE (Sigma-Aldrich, Milan, Italy) was assessed by Ellman’s method,8 using
(§10) Stock solutions of the AChEs were prepared by
(§11) dissolving enzyme lyophilized powder (hAChE) or diluting the enzyme commercial solution
(§12) (mAChE) in 0.1 M potassium phosphate (pH 8.0) containing 0.1% Triton X-100, whereas the
(§13) stock solution of hBChE was prepared in 0.1% aq. gelatin and the stock solutions of the
(§14) compounds to be tested were made in MeOH (2-4 mM). The assay solution consisted of 0.02
(§15) unit mL‒1 of the enzyme, 340 M 5,5’-dithiobis(2-nitrobenzoic acid), and 550 M of the
(§16) substrate acetylthiocholine iodide (for AChE assay) or butyrylthiocholine iodide (for BChE
(§17) assay) in 0.1 M potassium phosphate (pH 8.0). Blank solutions containing all components
(§18) except the enzymes were prepared to account for the non-enzymatic hydrolysis of the
(§19) Prior the addition of the substrate, the assay solutions were incubated at 37 °C for 20 min.
(§20) After the addition of the substrate, cuvettes were rapidly transferred into a Jasco V-530
(§21) double beam spectrophotometer equipped with thermostated cuvette holders (37 °C), in order
(§22) for 240 s. For each tested compound, five increasing concentrations were assayed in order to
(§23) achieve inhibition percentages of 20‒80%. Each concentration was assayed in triplicate. IC50
(§24) values were calculated from the inhibition plot (% inhibition vs log[inhibitor]) and are
(§25) expressed as mean ± SEM. Each IC50 value is the average of at least two experiments, each

[2] = system: hippocampus of SAMP8 mice; assay: Hippocampal protein levels by western blot in SAMP8 mice; type: in vivo, mouse; conditions: 2 mg kg^–1 day^–1 oral, 4 weeks, vs control
Text: as §1, §2, §3, §4, §5
Compound 12c was dissolved in 1.8% (2-hydroxypropyl)-β-cyclodextrin (Sigma-Aldrich, St.
Louis, MO) and administered through drinking water for 4 weeks (Figure S6 of the Supporting Information). Control groups received water plus 1.8% (2-hydroxypropyl)-β-cyclodextrin during the treatment period. After 4 weeks of treatment, behavioral and cognitive tests were performed to study the effects of treatment on working memory. Drug administration was continued until euthanasia by cervical dislocation, three days after the cognitive tests were completed. The brains were immediately removed from the skulls and the hippocampi were dissected, frozen and maintained at ‒80 °C.
Weight and water consumption were controlled each week, and compound concentration was adjusted accordingly to reach the optimal dose. Mice were treated according to European Community Council Directive 86/609/EEC and were approved by the Institutional Animal Care and Use Committee of the University of Barcelona (670/14/8102) and by Generalitat de Catalunya, Spain (10291). All studies and procedures for the behavioral tests, brain dissection and extractions followed the ARRIVE. Every effort was made to minimize animal suffering and to reduce the number of animals. […]
Exploration was defined as sniffing or touching the objects with the nose and/or forepaws.
The discrimination index (DI) was calculated as (TN‒TO)/(TN+TO). To avoid object preference biases, objects were alternated. 70% EtOH was used to clean the arms and objects after each trial for the elimination of olfactory cues.
Molecular analyses. Immunodetection experiments by western blot. The hippocampal tissue from each animal was homogenized in lysis buffer (Tris HCl pH 7.4 mM, NaCl 150 mM, EDTA 5 mM and 1X-Triton X-100) containing phosphatase and protease inhibitors (Cocktail II, Sigma-Aldrich, St. Louis, MO, USA) to obtain total protein homogenates. The Bradford technique was used to determine total protein concentration. Aliquots of 15 μg of total hippocampal protein were used and separated by sodium dodecyl sulfate-polyacrylamide gel […] (SDS-PAGE) (8‒20%) and transferred into polyvinylidene difluoride (PVDF) membranes (Merck-Millipore, Burlington, MA, USA) for 2 h. The membranes were blocked in 5% non-fat milk in TRIS-buffered saline (TBS) containing 0.1% Tween 20 (TBS-T, Sigma-Aldrich, St. Louis, MO, USA) for 1 h at room temperature, and then, overnight […]
membranes were washed with TBS-T 3 times for 5 min and incubated with secondary antibodies for 1 h at room temperature. Immunoreactive protein was viewed with a Chemiluminescence-based detection kit, following the manufacturer’s protocol (ECL Kit; Merck-Millipore), and digital images were acquired using a ChemiDoc XRS+ System (BioRad lab, Hercules, CA, USA). Semi-quantitative analyses were done using ImageLab Software (BioRad Lab), and results were expressed in Arbitrary Units (AU) considering control protein levels as 100%. Protein loading was routinely monitored by immunodetection of glyceraldehyde-3-phosphate dehydrogenase (GADPH).

recombinant human AChE = biological target: T2, recombinant human AChE (Homo sapiens, UniProt P22303); type: biochemical; conditions: recombinant human AChE; mean ± SEM; read-out: hAChE IC50
T2 construct: purchased Sigma-Aldrich, Milan, Italy
T2 sequence (P22303 32-614): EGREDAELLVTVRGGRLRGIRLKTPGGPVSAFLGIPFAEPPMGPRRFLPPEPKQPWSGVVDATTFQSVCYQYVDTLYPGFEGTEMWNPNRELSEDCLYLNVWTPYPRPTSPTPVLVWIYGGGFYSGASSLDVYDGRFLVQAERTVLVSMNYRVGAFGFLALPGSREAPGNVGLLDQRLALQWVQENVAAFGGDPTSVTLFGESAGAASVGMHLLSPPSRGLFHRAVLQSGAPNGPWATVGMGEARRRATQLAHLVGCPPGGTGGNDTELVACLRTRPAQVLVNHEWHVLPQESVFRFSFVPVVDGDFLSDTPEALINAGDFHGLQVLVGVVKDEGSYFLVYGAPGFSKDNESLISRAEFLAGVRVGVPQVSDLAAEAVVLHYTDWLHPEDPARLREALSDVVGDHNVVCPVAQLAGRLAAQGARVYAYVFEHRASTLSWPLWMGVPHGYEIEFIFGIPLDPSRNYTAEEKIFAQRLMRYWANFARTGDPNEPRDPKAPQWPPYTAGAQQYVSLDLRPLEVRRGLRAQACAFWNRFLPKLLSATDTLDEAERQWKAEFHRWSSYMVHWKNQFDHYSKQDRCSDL
Experimental: as §6, §7, §8, §9, §10, §11, §12, §13, §14, §15, §16, §17, §18, §19, §20, §21, §22, §23, §24, §25

Question: With `O=C(Nc1ccc(OC(F)(F)F)cc1)NC1CCN(C(=O)CCCCNc2c3c(nc4cc(Cl)ccc24)CCCC3)CC1` [12c, 1-{1-{5-[(6-Chloro-1,2,3,4-tetrahydroacridin-9-yl)amino]pentanoyl}piperidin-4-yl}-3-[4-(trifluoromethoxy)phenyl]urea] as the molecule, how does the Gfap gene expression [1] read?
Answer: Its Gfap gene expression is “tendency toward reduced gene expression”.

Question: What about the Il-1β gene expression [1] of the same molecule?
Answer: Its Il-1β gene expression is “tendency toward reduced gene expression”.

Question: And the Il-6 gene expression [1]?
Answer: The Il-6 gene expression was “significant reduction”.

Question: And the “hBChE potency relative to 6-chlorotacrine” value (human serum BChE)?
Answer: Its value is 3 fold.

Question: What about the IC50 (human serum BChE; human serum BChE, mean ± SEM, n.a. = not active, % inhibition <10% at 100 μM, read-out: hBChE IC50) of the same molecule?
Answer: The IC50 was 179 ± 90 nM.

Question: And the “hippocampal levels of synaptophysin (SYN)” value [2]?
Answer: Its value is “significantly increased”.

Question: And the “hippocampal protein levels of NFkβ” value [2]?
Answer: Its value is “reduced in mice treated with 12c relative to untreated mice but without reaching statistical significance”.

Question: And the “hippocampal protein levels of sAPPα” value [2]?
Answer: The value was “significant increase”.

Question: And the “hippocampal protein levels of sAPPβ” value [2]?
Answer: Its value is “tendency toward reduced levels”.

Question: And the “tau phosphorylation at Ser396” value [2]?
Answer: The value was “significant site-specific reduction”.

Question: What about the “tau phosphorylation at Ser404” value [2] of the same molecule?
Answer: The value was “slightly decreased phosphorylation”.

Question: What about the IC50 (recombinant human AChE) of the same molecule?
Answer: Its IC50 is 12.9 ± 1.6 nM.
